Laboratory results as given in the NIST ThermoML archive (doi:10.1016/j.fluid.2012.10.024).

Assay: xn = mol fraction of the nth substance listed
Conditions: 101 kPa, Liquid, Vibrating tube method

OCc1cccnc1 [β-picolyl alcohol] + O
mass density [kg/m3]
Conditions	293.15 K	298.15 K	303.15 K	308.15 K	313.15 K	318.15 K
x1 = 0.05	1032.8	1031.1	1028.7	1026.3	1024.1	1021.8
x1 = 0.1	1056.5	1054	1051.1	1048.2	1045.5	1042.8
x1 = 0.15	1074.5	1071.9	1068.7	1065.5	1062.5	1059.5
x1 = 0.2	1089.7	1086.6	1083.2	1079.8	1076.6	1073.3
x1 = 0.25	1098	1095	1091.4	1088	1084.7	1081.4
x1 = 0.3	1106.6	1103.4	1099.7	1096.2	1092.8	1089.5
x1 = 0.35	1111.4	1108.1	1104.4	1100.8	1097.4	1094
x1 = 0.4	1117	1113.7	1109.9	1106.3	1103	1099.4
x1 = 0.45	1120.5	1117.2	1113.5	1109.7	1106.4	1102.9
x1 = 0.5	1123.5	1120.3	1116.5	1112.8	1109.4	1106
x1 = 0.55	1125.9	1122.4	1118.6	1114.9	1111.6	1108.2
x1 = 0.6	1128	1124.7	1120.8	1117.3	1113.8	1110.4
x1 = 0.65	1129.7	1126.4	1122.5	1118.9	1115.5	1112.1
x1 = 0.7	1131.1	1127.8	1123.9	1120.3	1116.9	1113.5
x1 = 0.75	1132.3	1129	1125.2	1121.6	1118.1	1114.7
x1 = 0.8	1133.5	1130.1	1126.3	1122.7	1119.3	1115.9
x1 = 0.85	1134.5	1131.2	1127.4	1123.7	1120.3	1116.9
x1 = 0.9	1135.2	1131.8	1128.1	1124.5	1121.1	1117.7
x1 = 0.95	1136.1	1132.7	1128.9	1125.3	1122	1118.6
x1 = 1	1136.8	1133.5	1129.6	1125.9	1122.6	1119.3

OCc1ccccn1 [α-picolyl alcohol] + O
mass density [kg/m3]
Conditions	293.15 K	298.15 K	303.15 K	308.15 K	313.15 K	318.15 K
x1 = 0.05	1033.4	1031.7	1029.2	1027.6	1024.4	1021.6
x1 = 0.15	1077.3	1074.4	1071	1067.6	1064.5	1061.1
x1 = 0.2	1088.5	1085	1080.9	1076.8	1073.1	1069.3
x1 = 0.25	1098.1	1094	1089.6	1085.5	1081.6	1077.8
x1 = 0.3	1106.3	1102.9	1098.9	1095.1	1091.5	1087.9
x1 = 0.35	1112	1107.9	1103.4	1099.3	1095.4	1091.4
x1 = 0.4	1116	1111.7	1106.7	1102.3	1098.2	1094.5
x1 = 0.45	1119.8	1116.2	1111.9	1107.4	1103.6	1099.8
x1 = 0.5	1122.4	1118.9	1114.7	1110.8	1107	1103.2
x1 = 0.55	1124.4	1120.7	1116.3	1112.2	1108.3	1104.5
x1 = 0.6	1125.7	1122.1	1117.9	1113.9	1110	1106.3
x1 = 0.65	1127.5	1123.9	1119.8	1115.9	1112.1	1108.4
x1 = 0.7	1128.4	1124.8	1120.7	1116.9	1113.1	1109.5
x1 = 0.75	1129.3	1125.8	1121.7	1117.7	1114.1	1110.4
x1 = 0.8	1130.2	1126.7	1122.6	1118.7	1115	1111.2
x1 = 0.9	1131.5	1127.9	1123.9	1119.8	1116.1	1112.4
x1 = 0.95	1131.9	1128.3	1124.3	1120.3	1116.6	1112.9
x1 = 1	1132.3	1128.8	1124.7	1120.7	1116.9	1113.3
